Source: patent US12129258B2, “Diaryl macrocyclic compound and pharmaceutical composition, and use thereof” (PrimeGene (Beijing) Co., Ltd., priority 2018, dated 2024)
Like-named read-outs stand apart in the source and are kept apart here.

What was measured:
TRKB = TRKB (Homo sapiens (Human), UniProt Q16620); test: Mobility shift assay, TRKB kinase; settings: read-out: TRKB IC50, ATP 71.2 μM
Protocol: (§8) The inhibitory activity of compounds on TRKA, TRKB, TRKC and ROS1 kinase was analyzed with Mobility shift assay. The screening platform is MSA based microfluidic chip technology, which applies the basic concept of capillary electrophoresis to microfluidic environment. The substrate used in the experiment is a poly-peptide labeled with fluorescent. Under the catalysis of enzyme in the reaction system, the substrate is transformed into a product, with the charge changed accordingly. MSA technology could detect the substrate and the product with different charge separately.
(§9) The compound powder was dissolved in 100% DMSO (Sigma, Cat. D8418-1l) to prepare a 10 mM storage solution. […] The reaction was carried out at room temperature for 30 min/40 min/20 min/20 min respectively. After the reaction was terminated, the conversion rate was read by Caliper EZ Reader II.
(§10) Conversion %_Min: mean value of negative control, representing the conversion rate without enzyme activity;
(§11) Conversion %_Max: mean value of positive control, which represents the conversion rate reading without compound inhibition.
(§12) Taking the log value of concentration as X axis and the percentage inhibition rate as Y axis, the dose response curve was fitted by the analysis software GraphPad Prism 5, thus the IC50 value of each compound on enzyme activity inhibition was obtained.

TRKA [1] = target: T1, TRKA (Homo sapiens (Human), UniProt P04629); test: Mobility shift assay, TRKA kinase; type: biochemical; settings: ATP 47.8 μM
Source text: (§1) The operation is described as follows:
(§2) Conversion %_Sample: conversion rate of sample;

TRKC = TRKC (Homo sapiens (Human), UniProt Q16288); test: Mobility shift assay, TRKC kinase; settings: read-out: TRKC IC50, ATP 44.4 μM
Protocol: as §8, §9, §10, §11, §12

ROS1 = ROS1 (Homo sapiens (Human), UniProt P08922); test: Mobility shift assay, ROS1 kinase; type: biochemical; settings: ATP 26.7 μM
Source text: as §1, §2

Ba/F3 ETV6-NTRK2-WT = test: Cell proliferation inhibition (CellTiter-Glo), Ba/F3 ETV6-NTRK2-WT; type: cell-based; settings: Mus musculus, BaF3, 72 h, read-out: IC50 proliferation Ba/F3 ETV6-NTRK2-WT
Protocol: (§3) 4. Inhibitory Effect of Compounds on the Proliferation of TRK Fusion and Mutant Stable Cell Lines (IC50)
(§4) Six cell lines including Ba/F3 LMNA-NTRK1-WT, Ba/F3 LMNA-NTRK1-G595R, Ba/F3 ETV6-NTRK2-WT, Ba/F3 ETV6-NTRK2-G639R, Ba/F3 ETV6-NTRK2-G639R and Ba/F3 ETV6-NTRK3-G623R were used in this experiment. For the six cell lines, the maximum test concentration of the compound was 1 μM, 1 μM, 10 μM, […], 1 μM and 10 μM, were 3.16-fold gradient diluted to obtain 9 samples.
(§5) The operation is described briefly as follows:
(§6) The cells in logarithmic growth phase were harvested to ensure that the cell viability was above 90%. 3000 cell/well were seeded in 96-well plate (Corning, Cat #3603). The cells were incubated overnight with 5% CO2, 95% humidity at 37° C. Then each well containing the cells of the 96-well plate was added the compound solutions, 3 wells for each compound solution, and continued to incubate for another 72 hrs. Then CellTiter-Glo® kit (Promega, Cat #G7572) was used to do the detection. First, the CTG reagent was melted and the cell plate was balanced to room temperature. The same volume of CTG solution was added into each well and vibrated on the shaker for 5 minutes to lyse the cells. The cell plate was kept at room temperature for 20 minutes to stabilize the luminescent signal. The luminescent value was collected by SpectraMax microplate detector (MD, 2104-0010A). […] Cell survival rate (%)=(1umdrug−1ummedium)/(1umcell−lummedium)×100%

Ba/F3 LMNA-NTRK3-G623R = test: Cell proliferation inhibition (CellTiter-Glo), Ba/F3 LMNA-NTRK3-G623R; type: cell-based; settings: Mus musculus, BaF3, 72 h, read-out: IC50 proliferation Ba/F3 LMNA-NTRK3-G623R
[2] = Blood-to-brain distribution in rats; type: in vivo; settings: male, SD, rat, 10 mg/kg single oral gavage
Protocol: 7. Blood-to-Brain Distribution
Male SD rats were grouped, each group having 12 rats. Each group was given the compound of Examples (10 mg/kg) by single oral gavage. The animals were fasted overnight from 10 hours before administration to 4 hours after administration. The rats were killed at 0.5, 1, 4 and 12 hours after administration, and blood and brain tissues were collected. The samples were centrifuged at 4000 rpm at 4° C. for 5 min and plasma was transferred into the centrifuge tube and stored at −80° C. until analysis. The extract from the plasma extracted by protein precipitation was analyzed by LC/MS/MS.

Ba/F3 ETV6-NTRK3-WT = test: Cell proliferation inhibition (CellTiter-Glo), Ba/F3 ETV6-NTRK3-WT; type: cell-based; settings: Mus musculus, BaF3, 72 h, read-out: IC50 proliferation Ba/F3 ETV6-NTRK3-WT
Ba/F3 ETV6-NTRK2-G639R = test: Cell proliferation inhibition (CellTiter-Glo), Ba/F3 ETV6-NTRK2-G639R; type: cell-based; settings: Mus musculus, BaF3, 72 h, read-out: IC50 proliferation Ba/F3 ETV6-NTRK2-G639R
Protocol: as §3, §4, §5, §6

[3] = Pharmacokinetic analysis in rats; type: in vivo, Male SD rats; settings: male, SD, plasma; rat, PO, 5 mg/kg
Protocol: 6. Pharmacokinetic Analysis
Male SD rats were grouped, each group having 3 rats. […] Animals were fasted overnight from 10 hours before administration to 4 hours after administration. Blood samples were collected at 0.25, 0.5, 1, 2, 4, 8 and 24 hours after administration in the oral group and at 0.083, 0.25, 0.5, 1, 2, 4, 8 and 24 hours after injection in the intravenous group. After isoflurane anesthesia, 0.3 ml whole blood collected through the fundus vein plexus was put into the heparin anticoagulant tube. The sample was centrifuged at 4° C. at 4000 rpm for 5 min. The plasma was transferred into the centrifuge tube and stored at −80° C. until analysis. The extract from the plasma extracted by protein precipitation was analyzed by LC/MS/MS.

TRKA [4] = target: T1, TRKA; test: HTRF kinase activity assay, TRKA; type: biochemical; settings: 90 μM ATP
Protocol: The IC50 values of the compounds were calculated using XLFIT5 (IDBS) software.

Ba/F3 LMNA-NTRK1-WT = test: Cell proliferation inhibition (CellTiter-Glo), Ba/F3 LMNA-NTRK1-WT; type: cell-based; settings: Mus musculus, BaF3, 72 h, test batch marked *
Source text: as §3
(§7) Six cell lines including Ba/F3 LMNA-NTRK1-WT, Ba/F3 LMNA-NTRK1-G595R, Ba/F3 ETV6-NTRK2-WT, Ba/F3 ETV6-NTRK2-G639R, Ba/F3 ETV6-NTRK2-G639R and Ba/F3 ETV6-NTRK3-G623R were used in this experiment.
as §5
as §6, with “3000 cell/well were seeded in 96-well plate (Corning, Cat #3603). The cells were incubated overnight with 5% CO2, 95% humidity at 37° C.” left out, “signal.” for “signal. The luminescent value was collected by SpectraMax microplate detector (MD, 2104-0010A).”

Ba/F3 LMNA-NTRK1-G595R = test: Cell proliferation inhibition (CellTiter-Glo), Ba/F3 LMNA-NTRK1-G595R; type: cell-based; settings: Mus musculus, BaF3, 72 h, test batch marked *
Source text: as §3, §7, §5
as §6, with “3000 cell/well were seeded in 96-well plate (Corning, Cat #3603). The cells were incubated overnight with 5% CO2, 95% humidity at 37° C.” left out, “signal.” for “signal. The luminescent value was collected by SpectraMax microplate detector (MD, 2104-0010A).”

Sequence of ROS1 (P08922 28-2347): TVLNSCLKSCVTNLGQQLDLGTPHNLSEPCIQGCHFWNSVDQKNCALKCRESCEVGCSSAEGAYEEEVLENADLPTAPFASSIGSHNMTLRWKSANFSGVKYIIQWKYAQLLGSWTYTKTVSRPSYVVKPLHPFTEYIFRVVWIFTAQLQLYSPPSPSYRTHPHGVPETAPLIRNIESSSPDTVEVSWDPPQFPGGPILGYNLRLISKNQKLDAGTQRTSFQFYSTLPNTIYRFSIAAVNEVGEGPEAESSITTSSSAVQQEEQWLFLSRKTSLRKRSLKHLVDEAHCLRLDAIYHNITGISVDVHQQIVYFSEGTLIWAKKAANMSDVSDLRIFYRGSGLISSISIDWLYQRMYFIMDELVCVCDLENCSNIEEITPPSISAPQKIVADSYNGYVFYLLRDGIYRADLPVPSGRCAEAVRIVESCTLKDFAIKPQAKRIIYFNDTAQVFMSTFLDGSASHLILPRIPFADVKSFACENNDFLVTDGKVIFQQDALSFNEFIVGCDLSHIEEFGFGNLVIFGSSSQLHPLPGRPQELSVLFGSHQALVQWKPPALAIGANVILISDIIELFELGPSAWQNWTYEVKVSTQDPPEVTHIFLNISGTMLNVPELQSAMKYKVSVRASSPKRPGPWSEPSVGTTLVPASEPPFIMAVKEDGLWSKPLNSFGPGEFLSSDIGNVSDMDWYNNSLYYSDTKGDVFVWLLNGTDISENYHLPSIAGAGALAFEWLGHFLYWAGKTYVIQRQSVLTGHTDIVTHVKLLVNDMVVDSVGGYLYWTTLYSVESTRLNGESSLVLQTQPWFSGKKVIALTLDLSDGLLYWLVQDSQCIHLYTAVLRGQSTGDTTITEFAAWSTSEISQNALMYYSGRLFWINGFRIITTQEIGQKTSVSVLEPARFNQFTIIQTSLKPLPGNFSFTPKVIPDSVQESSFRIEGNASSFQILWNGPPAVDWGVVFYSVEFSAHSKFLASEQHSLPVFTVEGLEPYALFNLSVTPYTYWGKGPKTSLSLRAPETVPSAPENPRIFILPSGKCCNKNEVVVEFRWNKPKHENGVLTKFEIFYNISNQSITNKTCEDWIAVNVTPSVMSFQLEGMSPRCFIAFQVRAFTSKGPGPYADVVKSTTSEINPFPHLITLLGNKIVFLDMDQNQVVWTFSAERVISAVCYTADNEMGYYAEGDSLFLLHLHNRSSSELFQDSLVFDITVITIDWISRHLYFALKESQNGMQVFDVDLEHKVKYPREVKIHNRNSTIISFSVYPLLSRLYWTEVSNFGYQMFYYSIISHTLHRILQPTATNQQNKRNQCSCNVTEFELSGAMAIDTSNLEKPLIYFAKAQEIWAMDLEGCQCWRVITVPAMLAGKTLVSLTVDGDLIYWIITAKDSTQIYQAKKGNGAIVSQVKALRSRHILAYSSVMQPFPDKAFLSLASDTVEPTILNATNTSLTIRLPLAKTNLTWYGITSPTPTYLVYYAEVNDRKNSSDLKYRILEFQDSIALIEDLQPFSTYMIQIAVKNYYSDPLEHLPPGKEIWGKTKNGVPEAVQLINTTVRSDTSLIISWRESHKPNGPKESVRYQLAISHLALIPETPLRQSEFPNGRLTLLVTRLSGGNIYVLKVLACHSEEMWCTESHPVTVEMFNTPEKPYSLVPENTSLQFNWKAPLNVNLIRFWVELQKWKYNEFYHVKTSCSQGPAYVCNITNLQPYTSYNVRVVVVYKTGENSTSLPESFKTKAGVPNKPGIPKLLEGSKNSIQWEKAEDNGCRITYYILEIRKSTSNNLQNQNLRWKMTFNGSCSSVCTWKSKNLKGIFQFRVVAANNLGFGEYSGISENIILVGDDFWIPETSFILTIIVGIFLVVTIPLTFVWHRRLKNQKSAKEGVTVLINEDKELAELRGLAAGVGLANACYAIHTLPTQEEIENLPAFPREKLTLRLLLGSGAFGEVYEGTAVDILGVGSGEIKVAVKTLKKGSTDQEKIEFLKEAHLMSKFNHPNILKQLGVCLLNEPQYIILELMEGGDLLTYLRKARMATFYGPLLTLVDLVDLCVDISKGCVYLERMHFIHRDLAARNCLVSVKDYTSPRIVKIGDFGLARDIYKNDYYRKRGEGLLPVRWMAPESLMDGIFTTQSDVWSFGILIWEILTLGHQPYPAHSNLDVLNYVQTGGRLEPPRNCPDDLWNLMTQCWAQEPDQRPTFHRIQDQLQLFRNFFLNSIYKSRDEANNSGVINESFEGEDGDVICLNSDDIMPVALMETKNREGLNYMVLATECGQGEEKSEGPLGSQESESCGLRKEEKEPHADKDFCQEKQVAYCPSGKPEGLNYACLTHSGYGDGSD
Sequence of TRKB (Q16620 32-822): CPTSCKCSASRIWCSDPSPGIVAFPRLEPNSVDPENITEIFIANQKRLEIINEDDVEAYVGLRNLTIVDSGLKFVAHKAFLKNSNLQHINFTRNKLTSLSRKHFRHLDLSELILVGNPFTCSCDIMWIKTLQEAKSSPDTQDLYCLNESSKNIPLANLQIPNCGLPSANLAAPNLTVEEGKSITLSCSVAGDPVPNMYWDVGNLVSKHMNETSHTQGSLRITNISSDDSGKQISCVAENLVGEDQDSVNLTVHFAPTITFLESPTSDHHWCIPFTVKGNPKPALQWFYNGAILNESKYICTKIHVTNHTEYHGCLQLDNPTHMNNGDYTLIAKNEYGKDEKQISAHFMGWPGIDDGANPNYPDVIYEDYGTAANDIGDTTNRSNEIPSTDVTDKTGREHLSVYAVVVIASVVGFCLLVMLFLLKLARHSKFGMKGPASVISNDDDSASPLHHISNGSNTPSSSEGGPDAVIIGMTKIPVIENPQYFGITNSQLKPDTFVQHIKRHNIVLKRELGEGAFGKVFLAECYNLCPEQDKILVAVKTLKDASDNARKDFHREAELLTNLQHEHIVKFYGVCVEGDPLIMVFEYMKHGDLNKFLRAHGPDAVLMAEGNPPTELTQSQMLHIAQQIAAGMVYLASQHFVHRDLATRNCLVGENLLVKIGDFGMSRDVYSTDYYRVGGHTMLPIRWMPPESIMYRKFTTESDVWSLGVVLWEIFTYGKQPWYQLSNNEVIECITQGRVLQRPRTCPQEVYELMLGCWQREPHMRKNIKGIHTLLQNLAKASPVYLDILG
Sequence of TRKC (Q16288 other isoform, or with tags, fused parts or gaps isoform Q16288-3): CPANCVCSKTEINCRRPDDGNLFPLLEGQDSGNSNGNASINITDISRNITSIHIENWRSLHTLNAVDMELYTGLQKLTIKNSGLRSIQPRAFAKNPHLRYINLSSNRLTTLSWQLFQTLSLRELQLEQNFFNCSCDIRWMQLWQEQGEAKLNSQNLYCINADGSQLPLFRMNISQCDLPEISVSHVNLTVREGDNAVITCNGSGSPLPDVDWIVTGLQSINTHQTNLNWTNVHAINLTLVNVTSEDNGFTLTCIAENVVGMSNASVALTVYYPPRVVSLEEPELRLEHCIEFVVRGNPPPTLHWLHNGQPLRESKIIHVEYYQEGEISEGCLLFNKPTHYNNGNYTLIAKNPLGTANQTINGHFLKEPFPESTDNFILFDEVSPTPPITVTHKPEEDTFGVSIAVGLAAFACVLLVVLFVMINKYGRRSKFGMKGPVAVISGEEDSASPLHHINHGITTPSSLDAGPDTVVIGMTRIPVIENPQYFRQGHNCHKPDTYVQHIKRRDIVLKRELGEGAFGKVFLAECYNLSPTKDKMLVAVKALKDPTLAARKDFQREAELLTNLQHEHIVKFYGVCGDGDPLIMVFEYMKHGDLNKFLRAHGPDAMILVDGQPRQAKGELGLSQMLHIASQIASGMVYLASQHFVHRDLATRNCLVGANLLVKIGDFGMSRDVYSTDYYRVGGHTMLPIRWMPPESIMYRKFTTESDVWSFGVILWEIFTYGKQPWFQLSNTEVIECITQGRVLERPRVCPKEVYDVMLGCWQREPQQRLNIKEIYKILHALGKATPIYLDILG
T1 sequence (P04629 33-796): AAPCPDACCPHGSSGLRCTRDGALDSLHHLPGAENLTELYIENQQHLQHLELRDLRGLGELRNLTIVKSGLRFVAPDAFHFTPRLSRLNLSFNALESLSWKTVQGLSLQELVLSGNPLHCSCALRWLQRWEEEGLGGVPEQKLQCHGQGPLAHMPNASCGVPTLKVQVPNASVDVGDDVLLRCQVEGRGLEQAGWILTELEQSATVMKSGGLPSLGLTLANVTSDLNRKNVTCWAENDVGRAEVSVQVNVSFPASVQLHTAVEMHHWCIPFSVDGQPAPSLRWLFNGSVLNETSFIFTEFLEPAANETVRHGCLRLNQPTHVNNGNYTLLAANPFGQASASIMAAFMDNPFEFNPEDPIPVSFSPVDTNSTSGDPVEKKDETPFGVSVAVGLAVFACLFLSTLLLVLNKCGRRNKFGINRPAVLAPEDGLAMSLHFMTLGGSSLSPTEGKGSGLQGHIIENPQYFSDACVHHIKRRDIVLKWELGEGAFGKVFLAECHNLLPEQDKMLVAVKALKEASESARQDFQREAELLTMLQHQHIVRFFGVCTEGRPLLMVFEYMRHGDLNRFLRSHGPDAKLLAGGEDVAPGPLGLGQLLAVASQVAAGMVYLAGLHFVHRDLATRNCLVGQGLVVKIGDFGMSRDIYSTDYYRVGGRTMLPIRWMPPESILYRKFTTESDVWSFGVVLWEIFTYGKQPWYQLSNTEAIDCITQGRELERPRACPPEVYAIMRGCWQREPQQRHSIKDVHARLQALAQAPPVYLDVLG

| SMILES | IC50 (TRKB) [nM] | IC50 (TRKA [1]) [nM] | IC50 (TRKC) [nM] | IC50 (ROS1) [nM] | further results |
| --- | --- | --- | --- | --- | --- |
| C[C@H]1Nc2ccn3ncc(c3n2)C(=O)OCC(F)(F)Oc2ccc(F)cc21 [Example 24, (R,1^3E,1^4E)-4^5,6,6-trifluoro-3-methyl-5,8-dioxa-2-aza-1(5,3)-pyrazolo[1,5-a]pyrimidina-4(1,2)-benzenacyclononaphan-9-one] | 0.6 | 0.56 | 0.75 | 0.29 | – |
| C[C@H]1CNC(=O)c2cnn3ccc(nc23)N[C@H](C)c2cc(F)ccc2O1 [TPX-0005, reference compound] | – | – | – | – | IC50 (Ba/F3 ETV6-NTRK2-WT): 2.5 nM; IC50 (Ba/F3 LMNA-NTRK3-G623R): 9 nM; Kp ([2]; brain/plasma, AUC0-inf ratio): 0.17; AUC(0-inf) ([2]; brain, read-out: AUC0-inf Brain): 2.35 µM·h; AUC(0-inf) ([2]; plasma, read-out: AUC0-inf Plasma): 13.9 µM·h; IC50 (Ba/F3 ETV6-NTRK3-WT): 0.8 nM; IC50 (Ba/F3 ETV6-NTRK2-G639R): 86.6 nM; AUC(0-inf) [3]: 2950 ng·h/mL; Cmax [3]: 503 ng/mL; Tmax [3]: 1.33 h; half-life [3]: 3.55 h |
| C[C@@H]1c2cc(F)ccc2OCCOC(=O)c2cnn3ccc(nc23)N1C [Example 23, (R,1^3E,1^4E)-4^5-fluoro-2,3-dimethyl-5,8-dioxa-2-aza-1(5,3)-pyrazolo[1,5-a]pyrimidina-4(1,2)-benzenacyclononaphan-9-one] | 0.48 | 0.39 | 0.63 | 4.8 | – |
| C[C@@H]1COc2ccc(F)cc2[C@@H](C)Nc2ccn3ncc(c3n2)C(=O)O1 [Example 6, (1^3E,1^4E,3R,7R)-4^5-fluoro-3,7-dimethyl-5,8-dioxa-2-aza-1(5,3)-pyrazolo[1,5-a]pyrimidina-4(1,2)-benzenacyclononaphan-9-one] | 1.2 | 0.75 | 1.2 | 0.78 | – |
| CCc1cc2c(cc1N1CCC(N3CCOCC3)CC1)C(C)(C)c1[nH]c3cc(C#N)ccc3c1C2=O [Alectinib] | – | – | – | – | IC50 (TRKA [4]): 60.4 nM |
| C[C@H]1COC(=O)c2cnn3ccc(nc23)N[C@H](C)c2cc(F)ccc2S1 [Example 9, (1^3E,1^4E,3R,6S)-4^5-fluoro-3,6-dimethyl-8-oxa-5-thia-2-aza-1(5,3)-pyrazolo[1,5-a]pyrimidina-4(1,2)-benzenacyclononaphan-9-one] | 0.86 | 0.59 | 0.76 | 0.54 | – |
| C[C@H]1Nc2ccn3ncc(c3n2)C(=O)OCCOc2ccc(F)cc21 [Example 13, (R,1^3E,1^4E)-4^5-fluoro-3-methyl-5,8-dioxa-2-aza-1(5,3)-pyrazolo[1,5-a]pyrimidina-4(1,2)-benzenacyclononaphan-9-one] | 0.9 | 0.62 | 0.73 | 1.9 | – |
| C[C@H]1Oc2cc(cnc2N)-c2c(nn(C)c2C#N)CN(C)C(=O)c2ccc(F)cc21 [Lorlatinib] | – | – | – | – | IC50 (TRKA [4]): 6.2 nM |
| Cc1cc(Nc2ncc(Cl)c(Nc3ccccc3S(=O)(=O)C(C)C)n2)c(OC(C)C)cc1C1CCNCC1 [Ceritinib] | – | – | – | – | IC50 (TRKA [4]): 182 nM |
| C[C@H]1Nc2ccn3ncc(c3n2)C(=O)OCCSc2ccc(F)cc21 [Example 25, (R,1^3E,1^4E)-4^5-fluoro-3-methyl-8-oxa-5-thia-2-aza-1(5,3)-pyrazolo[1,5-a]pyrimidina-4(1,2)-benzenacyclononaphan-9-one] | 1.6 | 1.1 | 1.1 | 1.2 | – |
| O=C(Nc1cnn2ccc(N3CCC[C@@H]3c3cc(F)ccc3F)nc12)N1CC[C@H](O)C1 [LOXO-101, reference compound] | – | – | – | – | IC50 (Ba/F3 ETV6-NTRK2-WT; 72 hrs, test batch marked *): 75.3 nM; IC50 (Ba/F3 LMNA-NTRK1-WT): 47.4 nM; IC50 (Ba/F3 LMNA-NTRK1-G595R): 2170 nM; IC50 (Ba/F3 ETV6-NTRK3-WT; 72 hrs, test batch marked *): 6.8 nM; IC50 (Ba/F3 ETV6-NTRK2-G639R; 72 hrs, test batch marked *): 8180 nM |
